Consider 20 molecules from US20230382925A1, “MODULATORS OF CYSTIC FIBROSIS TRANSMEMBRANE CONDUCTANCE REGULATOR” (VERTEX PHARMACEUTICALS INCORPORATED, priority 2020, published 2023).

Several values for one entry are separate records, joined by “and”; a condition that tells them apart may be missing. Equal entries are not always repeated. Where two headings read alike, the source gives them in different places.

For data set [1] the following is noted: amide bond, 13-membered ring, DMF.
For data set [2], the target named is T1, CFTR (Homo sapiens, UniProt P13569). The data set is described as follows: Membrane Potential Dye, Enteroid Assay B. Format: cell-based. The note with it: for EC50: read-out: Ent. B EC50. The method, boiled down: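 Human intestinal enteroid cells exposed to compound 18-24 h at 37 °C, then loaded with methyl oxonol membrane-potential dye plus CaCC blockers. Chloride transport triggered in chloride-free buffer with 10 μM forskolin, 100 μM IBMX, 300 nM Compound III; fluorescence read 15 min, expressed as % of triple-corrector/potentiator combination control.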

The target in data set [3] is T1, CFTR. As to the kind of experiment: Membrane Potential Dye, Enteroid Assay A. Format: cell-based. Particulars: for EC50: read-out: Ent. A EC50. The method, boiled down:
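Primary human intestinal enteroid cells exposed to compound for 18–24 hours at 37 °C, then loaded 25 min with methyl oxonol membrane potential dye plus CaCC inhibitors. Chloride transport triggered in chloride-free buffer with 10 μM forskolin, 100 μM IBMX and 300 nM Compound III, fluorescence read 15 min; % Activity relative to a triple-combination corrector/potentiator control.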

The conditions of data set [4]: amide bond, 13-membered ring, DMF. This is another data set of the same source.

T1 sequence (P13569 with tags, fused parts or gaps DEL508-508): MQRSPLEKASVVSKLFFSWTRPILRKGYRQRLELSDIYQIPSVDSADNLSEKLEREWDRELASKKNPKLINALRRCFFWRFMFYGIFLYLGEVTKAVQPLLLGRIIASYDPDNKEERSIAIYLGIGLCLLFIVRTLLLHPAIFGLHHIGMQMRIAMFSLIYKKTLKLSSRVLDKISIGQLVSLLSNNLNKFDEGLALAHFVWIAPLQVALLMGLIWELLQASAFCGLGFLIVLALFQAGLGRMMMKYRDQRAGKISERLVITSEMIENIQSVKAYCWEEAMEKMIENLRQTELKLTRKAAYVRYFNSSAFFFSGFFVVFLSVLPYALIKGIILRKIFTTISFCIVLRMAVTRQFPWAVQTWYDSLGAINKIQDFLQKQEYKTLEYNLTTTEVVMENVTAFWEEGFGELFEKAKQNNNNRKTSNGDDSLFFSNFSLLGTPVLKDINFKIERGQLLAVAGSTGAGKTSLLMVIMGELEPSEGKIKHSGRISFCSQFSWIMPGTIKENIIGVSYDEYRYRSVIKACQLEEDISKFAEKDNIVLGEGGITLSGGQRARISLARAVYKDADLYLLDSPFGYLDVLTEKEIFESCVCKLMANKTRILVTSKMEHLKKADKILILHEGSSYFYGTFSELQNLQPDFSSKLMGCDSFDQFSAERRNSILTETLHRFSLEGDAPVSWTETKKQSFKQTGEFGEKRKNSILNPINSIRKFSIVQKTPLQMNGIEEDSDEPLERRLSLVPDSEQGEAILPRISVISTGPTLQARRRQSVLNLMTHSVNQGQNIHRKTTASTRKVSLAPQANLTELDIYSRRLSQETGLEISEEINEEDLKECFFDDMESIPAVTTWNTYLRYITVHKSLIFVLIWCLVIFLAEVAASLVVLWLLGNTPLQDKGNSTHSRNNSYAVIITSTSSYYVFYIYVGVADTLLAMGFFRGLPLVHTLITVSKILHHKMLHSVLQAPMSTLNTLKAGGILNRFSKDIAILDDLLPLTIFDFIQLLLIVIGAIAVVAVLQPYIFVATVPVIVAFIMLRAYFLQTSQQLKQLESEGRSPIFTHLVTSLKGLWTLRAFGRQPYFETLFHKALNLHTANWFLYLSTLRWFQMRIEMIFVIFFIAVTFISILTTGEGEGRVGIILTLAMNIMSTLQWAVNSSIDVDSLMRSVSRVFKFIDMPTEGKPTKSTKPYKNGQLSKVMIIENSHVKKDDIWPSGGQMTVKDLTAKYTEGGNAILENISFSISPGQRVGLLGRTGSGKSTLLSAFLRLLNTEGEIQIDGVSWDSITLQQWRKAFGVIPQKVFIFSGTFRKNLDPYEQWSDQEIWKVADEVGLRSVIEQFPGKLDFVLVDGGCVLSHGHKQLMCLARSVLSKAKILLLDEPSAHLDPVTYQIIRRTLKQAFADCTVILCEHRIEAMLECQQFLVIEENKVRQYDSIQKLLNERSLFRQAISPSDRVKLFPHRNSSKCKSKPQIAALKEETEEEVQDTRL

For the molecule `CC(C)C[C@@H]1COc2cc(Cl)nc(n2)NS(=O)(=O)c2cccc(c2)C(=O)N1C1CC2(CC2)C1`, the ring closure, isolated yield in data set [1] (from CC(C)C[C@H](COc1cc(Cl)nc(NS(=O)(=O)c2cccc(C(=O)O)c2)n1)NC1CC2(CC2)C1, HATU/DIEA, 16.5 mM, 17.0 h) was found to be 58%.

For `CC(C)C[C@@H]1COc2cc(Cl)nc(n2)NS(=O)(=O)c2cccc(c2)C(=O)N1C1CC2(CCN(C(=O)OC(C)(C)C)CC2)C1`, the ring closure, isolated yield in data set [1] (from CC(C)C[C@H](COc1cc(Cl)nc(NS(=O)(=O)c2cccc(C(=O)O)c2)n1)NC1CC2(CCN(C(=O)OC(C)(C)C)CC2)C1, HATU/TEA, 154.9 mM, 25.0 °C, 16.0 h) was 41%.

Take `COC(=O)C1CC(N2C(=O)c3cccc(c3)S(=O)(=O)Nc3nc(cc(-c4c(C)cccc4C)n3)OC[C@H]2CC(C)(C)C)C1` (some centres unmarked): the ring closure, isolated yield in data set [1] (from COC(=O)C1CC(N[C@@H](COc2cc(-c3c(C)cccc3C)nc(NS(=O)(=O)c3cccc(C(=O)O)c3)n2)CC(C)(C)C)C1, COMU/DIEA, 25.2 mM, 25.0 °C, 21.0 h) was 25% and 34%.

In data set [1] (from COC(=O)C1CC2(CC(N[C@@H](COc3cc(-c4c(C)cccc4C)nc(NS(=O)(=O)c4cccc(C(=O)O)c4)n3)CC(C)(C)C)C2)C1, COMU/DIEA, 16.0 h, 2 steps), `COC(=O)C1CC2(C1)CC(N1C(=O)c3cccc(c3)S(=O)(=O)Nc3nc(cc(-c4c(C)cccc4C)n3)OC[C@H]1CC(C)(C)C)C2` (some centres unmarked) registered a ring closure, isolated yield of 51%.

For the molecule `COC(=O)C1CC2(C1)CC(N1C(=O)c3cccc(c3)S(=O)(=O)Nc3nc(cc(-c4c(C)cccc4C)n3)OC[C@H]1CCC(C)C)C2` (some centres unmarked), the ring closure, isolated yield in data set [1] (HATU/DIEA, 25.0 °C, 2 steps) worked out at 20%.

In turn, `COC(=O)CC1CC(N2C(=O)c3cccc(c3)S(=O)(=O)Nc3nc(cc(-c4c(C)cccc4C)n3)OC[C@H]2CC(C)(C)C)C1` (some centres unmarked) had a ring closure, isolated yield in data set [1] (from COC(=O)CC1CC(N[C@@H](COc2cc(-c3c(C)cccc3C)nc(NS(=O)(=O)c3cccc(C(=O)O)c3)n2)CC(C)(C)C)C1, COMU/DIEA, 47.0 mM, 18.0 h) of 79%.

Turning to `Cc1cccc(C)c1-c1cc2nc(n1)NS(=O)(=O)c1cccc(c1)C(=O)N(C1CC(C(=O)OC(C)C)(C(=O)OC(C)C)C1)[C@H](CC(C)(C)C)CO2`, the ring closure, isolated yield in data set [1] (from Cc1cccc(C)c1-c1cc(OC[C@@H](CC(C)(C)C)NC2CC(C(=O)OC(C)C)(C(=O)OC(C)C)C2)nc(NS(=O)(=O)c2cccc(C(=O)O)c2)n1, COMU/DIEA, 18.6 mM, 25.0 °C, 21.0 h) came to 20%.

As for `Cc1cccc(C)c1-c1cc2nc(n1)NS(=O)(=O)c1cccc(c1)C(=O)N(C1CC(NC(=O)OC(C)(C)C)C1)[C@H](CC1(C(F)(F)F)CC1)CO2` (some centres unmarked), the ring closure, isolated yield in data set [1] (from Cc1cccc(C)c1-c1cc(OC[C@@H](CC2(C(F)(F)F)CC2)NC2CC(NC(=O)OC(C)(C)C)C2)nc(NS(=O)(=O)c2cccc(C(=O)O)c2)n1, HATU/DIPEA, 28.6 mM, 16.0 h) was 61%.

In data set [1] (from Cc1cccc(C)c1-c1cc(OC[C@@H](CC(C)(C)C)NC2CC(OCc3ccccc3)C2)nc(NS(=O)(=O)c2cccc(C(=O)O)c2)n1, COMU/DIEA, 65.1 mM, 25.0 °C, 16.0 h), `Cc1cccc(C)c1-c1cc2nc(n1)NS(=O)(=O)c1cccc(c1)C(=O)N(C1CC(OCc3ccccc3)C1)[C@H](CC(C)(C)C)CO2` (some centres unmarked) yielded a ring closure, isolated yield of 82%.

In turn, `Cc1cccc(C)c1-c1cc2nc(n1)NS(=O)(=O)c1cccc(c1)C(=O)N(C1CC(OCc3ccccc3)C1)[C@H](CC(C)C)CO2` (some centres unmarked) gave a ring closure, isolated yield in data set [1] (from Cc1cccc(C)c1-c1cc(OC[C@@H](CC(C)C)NC2CC(OCc3ccccc3)C2)nc(NS(=O)(=O)c2cccc(C(=O)O)c2)n1, HATU/DIEA, 77.3 mM, 15.0 h) of 85%.

`Cc1cccc(C)c1-c1cc2nc(n1)NS(=O)(=O)c1cccc(c1)C(=O)N(C1CC3(C1)CC1(C3)OCCO1)[C@H](CC(C)(C)C)CO2` displayed a ring closure, isolated yield in data set [1] (from Cc1cccc(C)c1-c1cc(OC[C@@H](CC(C)(C)C)NC2CC3(C2)CC2(C3)OCCO2)nc(NS(=O)(=O)c2cccc(C(=O)O)c2)n1, COMU/DIEA, 71.6 mM, 16.0 h) of 76%.

In data set [1] (from Cc1cccc(C)c1-c1cc(OC[C@@H](CC2(C(F)(F)F)CC2)NC2CC3(C2)CN(C(=O)OC(C)(C)C)C3)nc(NS(=O)(=O)c2cccc(C(=O)O)c2)n1, HATU/TEA, 35.1 mM, 22.0 h), `Cc1cccc(C)c1-c1cc2nc(n1)NS(=O)(=O)c1cccc(c1)C(=O)N(C1CC3(C1)CN(C(=O)OC(C)(C)C)C3)[C@H](CC1(C(F)(F)F)CC1)CO2` yielded a ring closure, isolated yield of 49%.

As for `Cc1cccc(C)c1-c1cc2nc(n1)NS(=O)(=O)c1cccc(c1)C(=O)N(C1CC3(CC(NC(=O)OC(C)(C)C)C3)C1)[C@H](CC1(C(F)(F)F)CC1)CO2` (some centres unmarked), the ring closure, isolated yield in data set [1] (from Cc1cccc(C)c1-c1cc(OC[C@@H](CC2(C(F)(F)F)CC2)NC2CC3(CC(NC(=O)OC(C)(C)C)C3)C2)nc(NS(=O)(=O)c2cccc(C(=O)O)c2)n1, HATU/DIEA, 99.2 mM, 18.0 h) stood at 74%.

With `Cc1cccc(C)c1-c1cc2nc(n1)NS(=O)(=O)c1cccc(c1)C(=O)N(C1CC3(CCN(C(=O)OC(C)(C)C)C3)C1)[C@H](CC(C)C)CO2` (some centres unmarked), the ring closure, isolated yield in data set [1] (from Cc1cccc(C)c1-c1cc(OC[C@@H](CC(C)C)NC2CC3(CCN(C(=O)OC(C)(C)C)C3)C2)nc(NS(=O)(=O)c2cccc(C(=O)O)c2)n1, HATU/DIEA, 25.0 °C, 3.0 h, 2 steps) is 67%.

`Cc1cccc(C)c1-c1cc2nc(n1)NS(=O)(=O)c1cccc(c1)C(=O)N(C1CC3(COC(=O)N3)C1)[C@H](CC(C)(C)C)CO2` (some centres unmarked): the ring closure, isolated yield in data set [1] (from Cc1cccc(C)c1-c1cc(OC[C@@H](CC(C)(C)C)NC2CC3(COC(=O)N3)C2)nc(NS(=O)(=O)c2cccc(C(=O)O)c2)n1, COMU/DIEA, 13.0 mM, 25.0 °C, 3.0 h, 2 steps) is 8% and 3%.

Regarding `Cc1cccc(C)c1-c1cc2nc(n1)NS(=O)(=O)c1cccc(c1)C(=O)N(C1[C@@H]3C[C@H]1CN(C(=O)OC(C)(C)C)C3)[C@H](CC(C)(C)C)CO2` (some centres unmarked), the ring closure, isolated yield in data set [1] (from Cc1cccc(C)c1-c1cc(OC[C@@H](CC(C)(C)C)NC2C3CC2CN(C(=O)OC(C)(C)C)C3)nc(NS(=O)(=O)c2cccc(C(=O)O)c2)n1, COMU/DIEA, 8.4 mM, 25.0 °C, 24.0 h) stood at 17%.

`Cc1cccc(C)c1-c1cc2nc(n1)NS(=O)(=O)c1cccc(c1)C(=O)N(C1CC3(CCN(CC(F)(F)F)CC3)C1)[C@H](CC(C)C)CO2` [Compound 18, (11R)-6-(2,6-dimethylphenyl)-11-isobutyl-2,2-dioxo-12-[7-(2,2,2-trifluoroethyl)-7-azaspiro[3.5]nonan-2-yl]-9-oxa-2λ^6-thia-3,5,12,19-tetrazatricyclo[12.3.1.14,8]nonadeca-1(18),4(19),5,7,14,16-hexaen-13-one]: in data set [2], the “Ent. B Max Activity (%)” value is “+++ (+++ is >60%)” and the EC50 (as a rule, the concentration that produces a half-maximal response) was below 1000 nM. Also, in data set [3], the “Ent. A Max Activity (%)” value was “+++ (+++ is >60%)” and the EC50 was below 1000 nM. In data set [4] (from Cc1cccc(C)c1-c1cc(OC[C@@H](CC(C)C)NC2CC3(CCN(CC(F)(F)F)CC3)C2)nc(NS(=O)(=O)c2cccc(C(=O)O)c2)n1, HATU/DIEA, 25.0 °C, 2.0 h, 2 steps), this molecule returned a ring closure, yield after HPLC of 17%.

For `Cc1cccc(C)c1-c1cc2nc(n1)NS(=O)(=O)c1cccc(c1)C(=O)N(C1CC3(CCC3)C1)[C@H](CC(C)C)CO2` [Compound 32, (11R)-6-(2,6-dimethylphenyl)-11-isobutyl-2,2-dioxo-12-spiro[3.3]heptan-2-yl-9-oxa-2λ^6-thia-3,5,12,19-tetrazatricyclo[12.3.1.14,8]nonadeca-1(18),4(19),5,7,14,16-hexaen-13-one], in data set [3], the “Ent. A Max Activity (%)” value is “++ (++ is 30-60%)” and the EC50 is below 1000 nM. This molecule had a ring closure, yield after HPLC in data set [4] (from Cc1cccc(C)c1-c1cc(OC[C@@H](CC(C)C)NC2CC3(CCC3)C2)nc(NS(=O)(=O)c2cccc(C(=O)O)c2)n1, HATU/DIEA, 25.0 °C, 2.0 h, 2 steps) of 44%.

As for `Cc1cccc(C)c1-c1cc2nc(n1)NS(=O)(=O)c1cccc(c1)C(=O)N(C1CC3(CC3)C1)[C@H](C)CO2` [Compound 126, (11R)-6-(2,6-dimethylphenyl)-11-methyl-12-{spiro[2.3]hexan-5-yl}-9-oxa-2λ^6-thia-3,5,12,19-tetraazatricyclo[12.3.1.14,8]nonadeca-1(17),4(19),5,7,14(18),15-hexaene-2,2,13-trione], in data set [3], the “Ent. A Max Activity (%)” value is recorded as “++ (++ is 30-60%)” and the EC50 lay within 1000 to 3000 nM. In data set [4] (from Cc1cccc(C)c1-c1cc(OC[C@@H](C)NC2CC3(CC3)C2)nc(NS(=O)(=O)c2cccc(C(=O)O)c2)n1, HATU/TEA, 20.9 mM, 96.0 h), the ring closure, yield after HPLC is 47%.

As for `Cc1cccc(C)c1-c1cc2nc(n1)NS(=O)(=O)c1cccc(c1)C(=O)N(C1CC3(CC3)C1)[C@H](CC(C)(C)C)CO2` [Compound 182, (11R)-6-(2,6-Dimethylphenyl)-11-(2,2-dimethylpropyl)-2,2-dioxo-12-spiro[2.3]hexan-5-yl-9-oxa-2λ^6-thia-3,5,12,19-tetrazatricyclo[12.3.1.14,8]nonadeca-1(18),4(19),5,7,14,16-hexaen-13-one], in data set [2], the “Ent. B Max Activity (%)” value is given as “+++ (+++ is >60%)” and the EC50 was below 1000 nM. In data set [3], the “Ent. A Max Activity (%)” value is recorded as “+++ (+++ is >60%)” and the EC50 was below 1000 nM. In data set [4] (from Cc1cccc(C)c1-c1cc(OC[C@@H](CC(C)(C)C)NC2CC3(CC3)C2)nc(NS(=O)(=O)c2cccc(C(=O)O)c2)n1, HATU/DIEA, 26.5 mM, 6.0 h), this molecule had a ring closure, yield after HPLC of 54%.
